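Five compound concentrations were applied to cells in 96-well plates for 48 hours; endpoints were derived by simple linear interpolation of the resulting dose-response curve. The concentration for 50% growth inhibition is given as GI50. TGI denotes the concentration required for complete inhibition of growth.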
Key:
Assay in all cases: DTP human tumour cell line panel, 48 h
786-0 renal = tested on: 786-0 renal
A498 renal = tested on: A498 renal
A549 NSCLC = tested on: A549 NSCLC
ACHN renal = tested on: ACHN renal
BT-549 breast = tested on: BT-549 breast
CAKI-1 renal = tested on: CAKI-1 renal
CCRF-CEM leukemia = tested on: CCRF-CEM leukemia
COLO 205 colon = tested on: COLO 205 colon
DU-145 prostate = tested on: DU-145 prostate
EKVX NSCLC = tested on: EKVX NSCLC
HCC-2998 colon = tested on: HCC-2998 colon
HCT-116 colon = tested on: HCT-116 colon
HCT-15 colon = tested on: HCT-15 colon
HL-60(TB) leukemia = tested on: HL-60(TB) leukemia
HOP-62 NSCLC = tested on: HOP-62 NSCLC
HOP-92 NSCLC = tested on: HOP-92 NSCLC
HS 578T breast = tested on: HS 578T breast
HT29 colon = tested on: HT29 colon
IGROV1 ovarian = tested on: IGROV1 ovarian
K-562 leukemia = tested on: K-562 leukemia
KM12 colon = tested on: KM12 colon
LOX IMVI melanoma = tested on: LOX IMVI melanoma
M14 melanoma = tested on: M14 melanoma
MALME-3M melanoma = tested on: MALME-3M melanoma
MCF7 breast = tested on: MCF7 breast
MDA-MB-231 breast = tested on: MDA-MB-231 breast
MDA-MB-435 = tested on: MDA-MB-435
MOLT-4 leukemia = tested on: MOLT-4 leukemia
NCI-H226 lung = tested on: NCI-H226 lung
NCI-H23 lung = tested on: NCI-H23 lung
NCI-H460 lung = tested on: NCI-H460 lung
NCI-H522 lung = tested on: NCI-H522 lung
NCI/ADR-RES ovarian = tested on: NCI/ADR-RES ovarian
OVCAR-3 ovarian = tested on: OVCAR-3 ovarian
OVCAR-4 ovarian = tested on: OVCAR-4 ovarian
OVCAR-5 ovarian = tested on: OVCAR-5 ovarian
OVCAR-8 ovarian = tested on: OVCAR-8 ovarian
PC-3 prostate = tested on: PC-3 prostate
RPMI-8226 leukemia = tested on: RPMI-8226 leukemia
RXF 393 renal = tested on: RXF 393 renal
SF-268 CNS = tested on: SF-268 CNS
SF-295 CNS = tested on: SF-295 CNS
SF-539 CNS = tested on: SF-539 CNS
SK-MEL-2 melanoma = tested on: SK-MEL-2 melanoma
SK-MEL-28 melanoma = tested on: SK-MEL-28 melanoma
SK-MEL-5 melanoma = tested on: SK-MEL-5 melanoma
SK-OV-3 ovarian = tested on: SK-OV-3 ovarian
SN12C renal = tested on: SN12C renal
SNB-19 CNS = tested on: SNB-19 CNS
SNB-75 CNS = tested on: SNB-75 CNS
SR leukemia = tested on: SR leukemia
SW-620 colon = tested on: SW-620 colon
T-47D breast = tested on: T-47D breast
TK-10 renal = tested on: TK-10 renal
U251 CNS = tested on: U251 CNS
UACC-257 melanoma = tested on: UACC-257 melanoma
UACC-62 melanoma = tested on: UACC-62 melanoma
UO-31 renal = tested on: UO-31 renal

O=C1[C@H]2Cc3c([nH]c4ccccc34)[C@@H](c3ccc(Br)cc3)N2C(=O)CN1C1CCN(Cc2ccccc2)CC1
GI50 (786-0 renal): 3.46 µM | TGI (786-0 renal): 7 µM | GI50 (A498 renal): 4.28 µM | TGI (A498 renal): 8.04 µM | GI50 (A549 NSCLC): 3.7 µM | TGI (A549 NSCLC): 13.5 µM | GI50 (ACHN renal): 3.76 µM | TGI (ACHN renal): 9.65 µM | GI50 (BT-549 breast): 3.4 µM | TGI (BT-549 breast): 7.49 µM | GI50 (CAKI-1 renal): 2.44 µM | TGI (CAKI-1 renal): 7.58 µM | GI50 (CCRF-CEM leukemia): 3.3 µM | TGI (CCRF-CEM leukemia): > 25 µM | GI50 (COLO 205 colon): 2.62 µM | TGI (COLO 205 colon): 6.04 µM | GI50 (DU-145 prostate): 7.12 µM | TGI (DU-145 prostate): > 25 µM | GI50 (EKVX NSCLC): 3.35 µM | TGI (EKVX NSCLC): 14.7 µM | GI50 (HCC-2998 colon): 3.44 µM | TGI (HCC-2998 colon): 7.94 µM | GI50 (HCT-116 colon): 2.54 µM | TGI (HCT-116 colon): 5.72 µM | GI50 (HCT-15 colon): 2.62 µM | TGI (HCT-15 colon): 5.92 µM | GI50 (HL-60(TB) leukemia): 2.3 µM | TGI (HL-60(TB) leukemia): 8.31 µM | GI50 (HOP-62 NSCLC): 3.98 µM | TGI (HOP-62 NSCLC): 10.8 µM | GI50 (HOP-92 NSCLC): 2.65 µM | TGI (HOP-92 NSCLC): 6.57 µM | GI50 (HS 578T breast): 3.4 µM | TGI (HS 578T breast): 9.29 µM | GI50 (HT29 colon): 3 µM | TGI (HT29 colon): 7.74 µM | GI50 (IGROV1 ovarian): 1.49 µM | TGI (IGROV1 ovarian): 5.8 µM | GI50 (K-562 leukemia): 1.06 µM | TGI (K-562 leukemia): 9.94 µM | GI50 (KM12 colon): 5.49 µM | TGI (KM12 colon): 18.1 µM | GI50 (LOX IMVI melanoma): 2.73 µM | TGI (LOX IMVI melanoma): 6.92 µM | GI50 (M14 melanoma): 3.24 µM | TGI (M14 melanoma): 8.35 µM | GI50 (MALME-3M melanoma): 3.69 µM | TGI (MALME-3M melanoma): 7.81 µM | GI50 (MCF7 breast): 1.14 µM | TGI (MCF7 breast): 4.75 µM | GI50 (MDA-MB-231 breast): 3.44 µM | TGI (MDA-MB-231 breast): 7.56 µM | GI50 (MDA-MB-435): 3.5 µM | TGI (MDA-MB-435): 7.02 µM | GI50 (MOLT-4 leukemia): 1.5 µM | TGI (MOLT-4 leukemia): > 25 µM | GI50 (NCI-H226 lung): 5.04 µM | TGI (NCI-H226 lung): > 25 µM | GI50 (NCI-H23 lung): 3.98 µM | TGI (NCI-H23 lung): 9.4 µM | GI50 (NCI-H460 lung): 3.87 µM | TGI (NCI-H460 lung): 7.82 µM | GI50 (NCI-H522 lung): 4.6 µM | TGI (NCI-H522 lung): 10.3 µM | GI50 (NCI/ADR-RES ovarian): 3.58 µM | TGI (NCI/ADR-RES ovarian): 9.46 µM | GI50 (OVCAR-3 ovarian): 3.27 µM | TGI (OVCAR-3 ovarian): 7.23 µM | GI50 (OVCAR-4 ovarian): 4.24 µM | TGI (OVCAR-4 ovarian): 13.1 µM | GI50 (OVCAR-5 ovarian): 5.1 µM | TGI (OVCAR-5 ovarian): 12.7 µM | GI50 (OVCAR-8 ovarian): 3.99 µM | TGI (OVCAR-8 ovarian): 9.01 µM | GI50 (PC-3 prostate): 1.67 µM | TGI (PC-3 prostate): 7.3 µM | GI50 (RPMI-8226 leukemia): 1.74 µM | TGI (RPMI-8226 leukemia): 7.67 µM | GI50 (RXF 393 renal): 2.91 µM | TGI (RXF 393 renal): 6.41 µM | GI50 (SF-268 CNS): 3.49 µM | TGI (SF-268 CNS): > 25 µM | GI50 (SF-295 CNS): 4.56 µM | TGI (SF-295 CNS): 9.1 µM | GI50 (SF-539 CNS): 3.61 µM | TGI (SF-539 CNS): 7.03 µM | GI50 (SK-MEL-2 melanoma): 5.73 µM | TGI (SK-MEL-2 melanoma): 14.9 µM | GI50 (SK-MEL-28 melanoma): 4.41 µM | TGI (SK-MEL-28 melanoma): 8.53 µM | GI50 (SK-MEL-5 melanoma): 3.84 µM | TGI (SK-MEL-5 melanoma): 7.29 µM | GI50 (SK-OV-3 ovarian): 6 µM | TGI (SK-OV-3 ovarian): > 25 µM | GI50 (SN12C renal): 3.17 µM | TGI (SN12C renal): 6.72 µM | GI50 (SNB-19 CNS): 6.77 µM | TGI (SNB-19 CNS): > 25 µM | GI50 (SNB-75 CNS): 0.745 µM | TGI (SNB-75 CNS): 18.3 µM | GI50 (SR leukemia): 1.86 µM | TGI (SR leukemia): 8.79 µM | GI50 (SW-620 colon): 3.32 µM | TGI (SW-620 colon): 7.15 µM | GI50 (T-47D breast): 3.54 µM | TGI (T-47D breast): 15.7 µM | GI50 (TK-10 renal): 5.79 µM | TGI (TK-10 renal): 12.7 µM | GI50 (U251 CNS): 2.96 µM | TGI (U251 CNS): 6.53 µM | GI50 (UACC-257 melanoma): 4.64 µM | TGI (UACC-257 melanoma): 10.2 µM | GI50 (UACC-62 melanoma): 3.58 µM | TGI (UACC-62 melanoma): 9.3 µM | GI50 (UO-31 renal): 1.13 µM | TGI (UO-31 renal): 18.2 µM

Source: PubChem BioAssay (NCI)
